Measurements reported in patent US9556165B2 (priority 2012, dated 2017).
≈ marks a conversion by molar mass, not a printed value. Like-named read-outs stand apart in the source and are kept apart here.

What was measured:
Type in all cases: cell-based
H. influenzae ATCC 49247 = assay: MIC determination, broth microdilution (CLSI); settings: Haemophilus influenzae, ATCC49247, strain 12; broth microdilution; read-out: MIC strain 12 (H. influenzae ATCC 49247)
E. coli J62-TEM-3 = assay: MIC determination, broth microdilution (CLSI); settings: Escherichia coli, J62TEM3, read-out: MIC strain 18 (E. coli J62-TEM-3), strain 18; broth microdilution
B. fragilis 6688 = assay: MIC determination, broth microdilution (CLSI); settings: Bacteroides fragilis, 6688, strain 15; broth microdilution; read-out: MIC strain 15 (B. fragilis 6688)
A. baumannii ATCC15308 = assay: MIC determination, broth microdilution (CLSI); settings: Acinetobacter baumannii, ATCC15308, strain 9
S. aureus 133 = assay: MIC determination, broth microdilution (CLSI)
C. freundii K21/3034 = assay: MIC determination, broth microdilution (CLSI); settings: Citrobacter freundii, K21/3034, strain 4
E. coli ATCC25922 = assay: MIC determination, broth microdilution (CLSI); settings: for MIC: Escherichia coli, ATCC25922, strain 1
Bacteria = assay: MIC determination in combination with β-lactamase inhibitors (constant 4 μg/mL)
M. morganii 126/3048 = assay: MIC determination, broth microdilution (CLSI); settings: Morganella morganii, 126/3048, strain 5
K. pneumoniae 60 = assay: MIC determination, broth microdilution (CLSI); settings: Klebsiella pneumoniae, 60, strain 2
E. cloacae 34654 = assay: MIC determination, broth microdilution (CLSI); settings: Enterobacter cloacae, 34654, strain 3
P. aeruginosa PAO1 = assay: MIC determination, broth microdilution (CLSI); settings: Pseudomonas aeruginosa, PAO1, strain 6
[1] = test system: P. aeruginosa 2297 (AmpC wt); assay: MIC determination, broth microdilution (CLSI); settings: Pseudomonas aeruginosa, strain 7
S. pneumoniae 113 = assay: MIC determination, broth microdilution (CLSI); settings: Streptococcus pneumoniae, 113, strain 13; broth microdilution; read-out: MIC strain 13 (S. pneumoniae 113)
E. coli J62 = assay: MIC determination, broth microdilution (CLSI); settings: Escherichia coli, J62, strain 17; broth microdilution; read-out: MIC strain 17 (E. coli J62)
[2] = test system: P. aeruginosa 2297-con (AmpC derepressed); assay: MIC determination, broth microdilution (CLSI); settings: Pseudomonas aeruginosa, read-out: strain 8 MIC, strain 8
[3] = Staphylococcus aureus, 133, strain 11, read-out: strain 11 MIC
[4] = Staphylococcus aureus, 133, strain 14, broth microdilution, read-out: MIC strain 14 (S. aureus 133)

Row | Structure (SMILES) | MIC (H. influenzae ATCC 49247) | MIC (E. coli J62-TEM-3) | MIC (B. fragilis 6688) | MIC (A. baumannii ATCC15308) | MIC (S. aureus 133; [3]) | MIC (S. aureus 133; [4]) | MIC (C. freundii K21/3034) | MIC (E. coli ATCC25922) | MIC strain 19 (E. coli J62-TEM-3 + 4 μg/mL clavulanic acid) (Bacteria) | MIC strain 20 (E. coli J62-TEM-3 + 4 μg/mL sulbactam) (Bacteria) | MIC strain 21 (E. coli J62-TEM-3 + 4 μg/mL tazobactam) (Bacteria) | MIC (M. morganii 126/3048) | MIC (K. pneumoniae 60) | MIC (E. cloacae 34654) | MIC (P. aeruginosa PAO1) | MIC [1] | MIC (S. pneumoniae 113) | MIC (E. coli J62) | MIC [2] | strain 1 MIC (E. coli ATCC25922; strain 1)
1 | C[C@H]1[C@H](NC(=O)/C(=N\OCCOc2cc(C(=N)N)n(C)n2)c2csc(N)n2)C(=O)N1S(=O)(=O)O [Example 72, (2S,3S)-3-{[(2Z)-2-(2-Amino-1,3-thiazol-4-yl)-2-({2-[(5-carbamimidoyl-1-methyl-1H-pyrazol-3-yl)oxy]ethoxy}imino)acetyl]amino}-2-methyl-4-oxoazetidine-1-sulfonic acid] | 0.5 µg/mL (≈ 0.97 µM) | 32 µg/mL (≈ 62.1 µM) | 16 µg/mL (≈ 31 µM) | 4 µg/mL (≈ 7.76 µM) | 0.25 µg/mL (≈ 0.485 µM) | 16 µg/mL (≈ 31 µM) | 0.5 µg/mL (≈ 0.97 µM) | 0.5 µg/mL (≈ 0.97 µM) | 1 µg/mL | 1 µg/mL | 1 µg/mL | 0.25 µg/mL (≈ 0.485 µM) | 0.25 µg/mL (≈ 0.485 µM) | 1 µg/mL (≈ 1.94 µM) | 8 µg/mL (≈ 15.5 µM) | 8 µg/mL (≈ 15.5 µM) | 2 µg/mL (≈ 3.88 µM) | 1 µg/mL (≈ 1.94 µM) |  | 
2 | C[C@H]1[C@H](NC(=O)/C(=N\OCCOc2cccc(C(=N)N)c2)c2csc(N)n2)C(=O)N1S(=O)(=O)O [Example 53, (2S,3S)-3-{[(2Z)-2-(2-Amino-1,3-thiazol-4-yl)-2-{[2-(3-carbamimidoylphenoxy)ethoxy]imino}acetyl]amino}-2-methyl-4-oxoazetidine-1-sulfonic acid] |  |  |  | 4 µg/mL (≈ 7.82 µM) |  | 32 µg/mL (≈ 62.6 µM) | 0.5 µg/mL (≈ 0.977 µM) | 0.5 µg/mL (≈ 0.977 µM) | 1 µg/mL | 1 µg/mL | 1 µg/mL | 2 µg/mL (≈ 3.91 µM) |  | 0.5 µg/mL (≈ 0.977 µM) | 16 µg/mL (≈ 31.3 µM) | 16 µg/mL (≈ 31.3 µM) |  | 1 µg/mL (≈ 1.95 µM) | 32 µg/mL (≈ 62.6 µM) | 
3 | CC1(C)[C@H](NC(=O)/C(=N\O[C@H](COc2ccc(C(=N)NCc3ncc[nH]3)cc2)C(=O)O)c2csc(N)n2)C(=O)N1OS(=O)(=O)O [Example 105, (2R)-2-({[(1Z)-1-(2-Amino-1,3-thiazol-4-yl)-2-{[(3S)-2,2-dimethyl-4-oxo-1-(sulfooxy)-azetidin-3-yl]amino}-2-oxoethylidene]amino}oxy)-3-{4-[N-(1H-imidazol-2-ylmeth-yl)carbamimidoyl]phenoxy}propanoic acid] |  |  |  |  |  |  |  |  |  |  |  |  |  |  |  |  |  |  |  | 16 µg/mL
4 | C[C@H]1[C@H](NC(=O)/C(=N\OCc2ccc(C(=N)N)cc2)c2csc(N)n2)C(=O)N1S(=O)(=O)O [Example 55, (2S,3S)-3-{[(2Z)-2-(2-Amino-1,3-thiazol-4-yl)-2-{[(4-carbamimidoylbenzyl)oxy]imino}-acetyl]amino}-2-methyl-4-oxoazetidine-1-sulfonic acid] | 1 µg/mL (≈ 2.08 µM) |  | 8 µg/mL (≈ 16.6 µM) | 4 µg/mL (≈ 8.31 µM) | 0.25 µg/mL (≈ 0.519 µM) | 8 µg/mL (≈ 16.6 µM) | 0.25 µg/mL (≈ 0.519 µM) | 0.5 µg/mL (≈ 1.04 µM) | 1 µg/mL | 0.5 µg/mL | 0.5 µg/mL | 0.25 µg/mL (≈ 0.519 µM) | 1 µg/mL (≈ 2.08 µM) | 0.5 µg/mL (≈ 1.04 µM) | 16 µg/mL (≈ 33.2 µM) |  | 0.125 µg/mL (≈ 0.26 µM) | 1 µg/mL (≈ 2.08 µM) | 32 µg/mL (≈ 66.5 µM) | 
5 | CC(C)NC(=N)c1ccc(OCCO/N=C(\C(=O)N[C@@H]2C(=O)N(S(=O)(=O)O)[C@H]2C)c2csc(N)n2)cc1 [Example 54, (2S,3S)-3-({(2Z)-2-(2-Amino-1,3-thiazol-4-yl)-2-[(2-{4-[N-(propan-2-yl)carbamimidoyl]phenoxy}ethoxy)imino]acetyl}amino)-2-methyl-4-oxoazetidine-1-sulfonic acid] |  | 16 µg/mL (≈ 28.9 µM) |  | 4 µg/mL (≈ 7.23 µM) |  | 2 µg/mL (≈ 3.61 µM) | 0.25 µg/mL (≈ 0.452 µM) | 0.5 µg/mL (≈ 0.903 µM) | 0.5 µg/mL | 0.25 µg/mL | 0.5 µg/mL | 1 µg/mL (≈ 1.81 µM) | 0.5 µg/mL (≈ 0.903 µM) | 0.5 µg/mL (≈ 0.903 µM) | 4 µg/mL (≈ 7.23 µM) | 8 µg/mL (≈ 14.5 µM) |  | 0.5 µg/mL (≈ 0.903 µM) |  | 
